The record followed here is US4293557A, “Antiulcer phenoxypropylamine derivatives” (Teikoku Hormone Mfg. Co., Ltd., priority 1979, dated 1981).

The target in one data set is T1, histamine H2 receptor (Cavia porcellus, UniProt P47747).
T1 construct: histamine-induced chronotropic response, pA2
The data set can be described thus: Measurement of histamine H2 receptor antagonizing activity (isolated right atrium, histamine dose-response of heart beat). Further details: species or system Hartley. To be noted: isolated guinea pig right atrium; test compound 1×10^-5 M; negative logarithm of molar concentration required to double the histamine concentration; Van Rossum method. The protocol:
(1) Measurement of histamine H2 receptor antagonizing activity
A guinea pig, Hartley, (male 400-550 g) was struck at the head to let out blood, and the heart was enucleated. The right atrium was separated in a Tyrod solution saturated with oxygen, and a silk thread was attached to its both ends. Using the silk threads at both ends, the atrium was suspended under a tension of 700 mg in a Magnus tube (25 ml) containing a Tyrod solution maintained at 36° C. through which mixture of 95% of O2 and 5% of CO2 was passed. The contracting motion of the atrium was recorded by a force-displacement transducer, and the number of heart beats was calculated.
Histamine (used in the form of diphosphate; the same hereinbelow) was cumulatively added to the Magnus tube in a concentration of 1×10^-8 M to 1×10^-4 M in such an amount that the logarithm of the amount provides an equal interval of 1/2, until a maximum increase in heart beat was obtained. Thus, the dose-response curve of histamine was obtained. The inside of the Magnus tube was washed several times with a Tyrod solution, and the atrium was stabilized for 1 hour. Then, the above procedure was repeated to obtain the dose-response curve of histamine again. The inside of the Magnus tube was washed several times, and the tissues were stabilized for 50 minutes. Then, a test compound (1×10^-5 M) was added to the Magnus tube, and after 20 minutes, the dose-response curve of histamine in the presence of the test compound was obtained.
The PA2 value (the negative logarithm of the molar concentration of the test compound required to double the concentration of histamine in the Magnus tube required to induce a certain reaction) was calculated from the dose-response curve of histamine obtained in the second operation and the dose-response curve of histamine in the presence of the test compound in accordance with the method of J. M. Van Rossum (Arch. int. Pharmacodyn., 143, 299, 1963).

The next data set in a line: in vivo. As to conditions: mouse, oral, 5% Tween 80 suspension, male ddY mice 19-22 g, Litchfield-Wilcoxon method.

T1 sequence (P47747 whole entry): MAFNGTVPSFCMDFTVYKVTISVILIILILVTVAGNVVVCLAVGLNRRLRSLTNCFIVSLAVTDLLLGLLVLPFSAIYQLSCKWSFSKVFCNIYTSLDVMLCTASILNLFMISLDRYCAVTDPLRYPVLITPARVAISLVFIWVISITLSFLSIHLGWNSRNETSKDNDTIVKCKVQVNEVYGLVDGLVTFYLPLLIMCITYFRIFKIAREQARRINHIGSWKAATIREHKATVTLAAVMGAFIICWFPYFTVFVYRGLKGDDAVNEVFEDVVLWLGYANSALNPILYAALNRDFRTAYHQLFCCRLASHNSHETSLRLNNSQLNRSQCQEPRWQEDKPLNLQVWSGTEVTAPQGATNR

For the compound `O=C(COC(=O)c1ccc(Cl)c(Cl)c1)NCCCOc1cccc(CN2CCCCCC2)c1` [U, N-(3,4-Dichlorobenzoyloxyacetyl)-3-[3-(1-perhydroazepinylmethyl)phenoxy]propylamine], at histamine H2 receptor, the PA2 is recorded as 6.80. Same read-out and setting: as for `O=CNCCCOc1cccc(CN2CCCCC2)c1` [C, N-[3-[3-(1-Piperidinylmethyl)phenoxy]propyl]formamide], the figure is 6.50.

With `COCC(=O)NCCCOc1cccc(CN2CCCCC2)c1` [O, N-[3-[3-(1-Piperidinylmethyl)phenoxy]propyl]methoxyacetamide], the PA2 on histamine H2 receptor is reported as 6.62. As for `O=C(CO)NCCCOc1cccc(CN2CCCCCC2)c1` [M, N-[3-[3-(1-Perhydroazepinylmethyl)phenoxy]propyl]hydroxyacetamide], the PA2 on histamine H2 receptor turned out to be 6.29. On the same count and under the same terms, for `CC(=O)OCC(=O)NCCCOc1cccc(C(C)N2CCCC2)c1` (centres unmarked) [P, N-[3-[3-[1-(1-Pyrrolidinyl)ethyl]phenoxy]propyl]acetoxyacetamide] the value was 6.11; for `CCC(c1cccc(OCCCNC=O)c1)N1CCCC1` (centres unmarked) [B], 6.49; for `CCC(c1cccc(OCCCNC(C)=O)c1)N1CCCC1` (centres unmarked) [G, N-[3-[3-[1-(1-Pyrrolidinyl)propyl]phenoxy]propyl]acetamide], 6.47. On the same count and under the same terms, for `CC(=O)NCCCOc1cccc(CN2CCCCC2)c1` [H, N-[3-[3-(1-Piperidinylmethyl)phenoxy]propyl]acetamide] the value was 6.52; for `CC(c1cccc(OCCCNC=O)c1)N1CCC(O)C1` (centres unmarked) [E], 5.99. Same read-out and setting: for `CC(=O)NCCCOc1cccc(C(C)N2CCCCC2)c1` (centres unmarked) [I, N-[3-[3-[1-(1-Piperidinyl)ethyl]phenoxy]propyl]acetamide] the value was 5.97; for `O=C(CO)NCCCOc1cccc(CN2CCCCC2)c1` [L, N-[3-[3-(1-Piperidinylmethyl)phenoxy]propyl]hydroxyacetamide], 6.79; for `CC(=O)OCC(=O)NCCCOc1cccc(CN2CCCCC2)c1` [Q, N-[3-[3-(1-Piperidinylmethyl)phenoxy]propyl]acetoxyacetamide], 7.10. For the compound `CC(c1cccc(OCCCNC=O)c1)N1CCCCCC1` (centres unmarked) [D, N-[3-[3-(1-(1-Perhydroazepinyl)ethyl]phenoxy]propyl]formamide], the PA2 on histamine H2 receptor was determined as 6.14.

As a reminder, the LD50 is the dose at which mortality reaches 50%. Low values mean a more toxic substance, high ones a less toxic substance. `CC(=O)NCCCOc1cccc(C(C)N2CCCC2)c1` (centres unmarked) [F, N-[3-[3-[1-(1-Pyrrolidinyl)ethyl]phenoxy]propyl]acetamide] gave a PA2 at histamine H2 receptor of 6.16. In the data set “in vivo”, this compound had a median lethal dose (LD50) at 72 h of 2100 mg/kg. On histamine H2 receptor, `CC(=O)OCC(=O)NCCCOc1cccc(CN2CCCCCC2)c1` [R, N-[3-[3-(1-Perhydroazepinylmethyl)phenoxy]propyl]acetoxyacetamide] showed a PA2 of 6.28. Consider `CCC(=O)OCC(=O)NCCCOc1cccc(CN2CCCCC2)c1` [S, N-[3-[3-(1-Piperidinylmethyl)phenoxy]propyl]propionyloxyacetamide], for which the PA2 on histamine H2 receptor worked out at 6.77. For `CC(c1cccc(OCCCNC=O)c1)N1CCCC1` (centres unmarked) [A, N-[3-[3-[1-(1-Pyrrolidinyl)ethyl]phenoxy]propyl]formamide], the PA2 on histamine H2 receptor came to 6.12. Besides, the LD50 at 72 h in the data set “in vivo” turned out to be 2500 mg/kg. In the case of `CC(c1cccc(OCCCNC(=O)CCN)c1)N1CCCC1` (centres unmarked) [N, N-(3-Aminopropionyl)-3-[3-[1-(1-pyrrolidinyl)ethyl]phenoxy]propylamine], the PA2 on histamine H2 receptor is reported as 6.26. Still for that read-out and setting: as for `O=C(COC(=O)c1ccccc1)NCCCOc1cccc(CN2CCCCC2)c1` [T, N-[3-[3-(1-Piperidinylmethyl)phenoxy]propyl]benzoyloxyacetamide], the figure is 6.74; as for `CC(c1cccc(OCCCNC(=O)CO)c1)N1CCCC1` (centres unmarked) [K, N-[3-[3-[1-(1-Pyrrolidinyl)ethyl]phenoxy]propyl]hydroxyacetamide], 5.83; as for `CCC(=O)NCCCOc1cccc(C(C)N2CCCC2)c1` (centres unmarked) [J, N-[3-[3-[1-(1-Pyrrolidinyl)ethyl]phenoxy]propyl]propionamide], 6.04.
